Results as given in PMC3914932, “Automated NMR Fragment Based Screening Identified a Novel Interface Blocker to the LARG/RhoA Complex” (PLoS ONE, 2014).

Molecular target: T1, RhoA (Homo sapiens, UniProt P61586)
T1 construct: residues 1–193
Assay: […] HSQC chemical shift perturbation titration; also STD and WaterLOGSY fragment screening
Assay type: binding

T1 sequence (P61586 whole entry, the tested form may be a part): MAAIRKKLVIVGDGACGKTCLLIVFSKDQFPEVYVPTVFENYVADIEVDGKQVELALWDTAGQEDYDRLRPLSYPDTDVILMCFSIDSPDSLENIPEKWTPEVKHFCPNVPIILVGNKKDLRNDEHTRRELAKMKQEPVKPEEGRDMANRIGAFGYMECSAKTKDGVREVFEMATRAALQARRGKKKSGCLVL

Kd: 110 µM
SMILES: c1ccc(COC2CNC2)cc1 [R1]
